Data from ChEMBL document CHEMBL3885881, “DrugMatrix”.

Organism: Rattus norvegicus
Test: DrugMatrix - Regimen: Daily Repeat
Format: toxicity, organism-based, Sprague-Dawley
Set-up: regimen Daily Repeat, gender Male, age 6-8 weeks
Conditions: in vivo, po, route oral GAVAGE, vehicle 100 % WATER; for ABSOLUTE BASOPHIL / ABSOLUTE EOSINOPHIL / ABSOLUTE LYMPHOCYTE / ABSOLUTE MONOCYTE / ABSOLUTE SEGMENTED NEUTROPHIL / BASOPHIL / EOSINOPHIL / ERYTHROCYTE COUNT / HEMATOCRIT / HEMOGLOBIN / LEUKOCYTE COUNT / LYMPHOCYTE / MEAN CORPUSCULAR HEMOGLOBIN / MEAN CORPUSCULAR HEMOGLOBIN CONCENTRATION / MEAN CORPUSCULAR VOLUME / MONOCYTE / NEUTROPHIL / NUCLEATED RED BLOOD CELLS / PLATELET COUNT: tissue Blood; for ALANINE AMINOTRANSFERASE / ALBUMIN / ALKALINE PHOSPHATASE / ASPARTATE AMINOTRANSFERASE / BLOOD UREA NITROGEN / CARBON DIOXIDE / CHLORIDE / CHOLESTEROL / CREATINE PHOSPHOKINASE / CREATININE / GLUCOSE / LACTATE DEHYDROGENASE / LIPASE / PHOSPHORUS / POTASSIUM / SODIUM / TOTAL BILIRUBIN / TOTAL PROTEIN / URIC ACID: tissue Plasma
[1] = 58 mg/kg, 120 h, dose level Low, time 5 day
[2] = 220 mg/kg, 72 h, dose level High, time 3 day
[3] = 220 mg/kg, 120 h, dose level High, time 5 day

## NC12CC3CC(CC(C3)C1)C2 [AMANTADINE]
[1]
  ABSOLUTE BASOPHIL: 0 CELLS/uL
  ABSOLUTE EOSINOPHIL: 0 CELLS/uL
  ABSOLUTE LYMPHOCYTE: 10747.67 CELLS/uL
  ABSOLUTE MONOCYTE: 83.67 CELLS/uL
  ABSOLUTE SEGMENTED NEUTROPHIL: 1002 CELLS/uL
  BASOPHIL: 0%
  EOSINOPHIL: 0%
  ERYTHROCYTE COUNT: 6.06 x10E6/uL
  HEMATOCRIT: 37.8%
  HEMOGLOBIN: 14.9 G/DL
  LEUKOCYTE COUNT: 11.83 x10E3/uL
  LYMPHOCYTE: 89%
  MEAN CORPUSCULAR HEMOGLOBIN: 24.63 pg
  MEAN CORPUSCULAR HEMOGLOBIN CONCENTRATION: 39.43 G/DL
  MEAN CORPUSCULAR VOLUME: 62.5 fL
  MONOCYTE: 1%
  NEUTROPHIL: 10%
  NUCLEATED RED BLOOD CELLS: 0 /100WBC
  PLATELET COUNT: 1200.33 x10E3/uL
  ALANINE AMINOTRANSFERASE: 44 u/L
  ALBUMIN: 4.27 G/DL
  ALKALINE PHOSPHATASE: 432.67 u/L
  ASPARTATE AMINOTRANSFERASE: 73.33 u/L
  BLOOD UREA NITROGEN: 16 mg/dL
  CARBON DIOXIDE: 31 mmol/L
  CHLORIDE: 100.33 MEQ/L
  CHOLESTEROL: 73.33 mg/dL
  CREATINE PHOSPHOKINASE: 431.33 u/L
  CREATININE: 0.18 mg/dL
  GLUCOSE: 147 mg/dL
  LACTATE DEHYDROGENASE: 336 u/L
  LIPASE: 11.33 u/L
  PHOSPHORUS: 12.13 mg/dL
  POTASSIUM: 6.25 MEQ/L
  SODIUM: 142.77 MEQ/L
  TOTAL BILIRUBIN: 0.23 mg/dL
  TOTAL PROTEIN: 6.27 G/DL
  URIC ACID: 1.43 mg/dL
[2]
  ABSOLUTE BASOPHIL: 0 CELLS/uL
  ABSOLUTE EOSINOPHIL: 0 CELLS/uL
  ABSOLUTE LYMPHOCYTE: 17634 CELLS/uL
  ABSOLUTE MONOCYTE: 192.33 CELLS/uL
  ABSOLUTE SEGMENTED NEUTROPHIL: 940.33 CELLS/uL
  BASOPHIL: 0%
  EOSINOPHIL: 0%
  ERYTHROCYTE COUNT: 5.62 x10E6/uL
  HEMATOCRIT: 36.3%
  HEMOGLOBIN: 14.43 G/DL
  LEUKOCYTE COUNT: 18.77 x10E3/uL
  LYMPHOCYTE: 94%
  MEAN CORPUSCULAR HEMOGLOBIN: 25.7 pg
  MEAN CORPUSCULAR HEMOGLOBIN CONCENTRATION: 39.77 G/DL
  MEAN CORPUSCULAR VOLUME: 64.63 fL
  MONOCYTE: 1%
  NEUTROPHIL: 5%
  NUCLEATED RED BLOOD CELLS: 0 /100WBC
  PLATELET COUNT: 1304.33 x10E3/uL
  ALANINE AMINOTRANSFERASE: 42.33 u/L
  ALBUMIN: 4.23 G/DL
  ALKALINE PHOSPHATASE: 440 u/L
  ASPARTATE AMINOTRANSFERASE: 69 u/L
  BLOOD UREA NITROGEN: 13.67 mg/dL
  CARBON DIOXIDE: 32 mmol/L
  CHLORIDE: 101 MEQ/L
  CHOLESTEROL: 61 mg/dL
  CREATINE PHOSPHOKINASE: 227.67 u/L
  CREATININE: 0.16 mg/dL
  GLUCOSE: 149 mg/dL
  LACTATE DEHYDROGENASE: 138.67 u/L
  LIPASE: 10.67 u/L
  PHOSPHORUS: 11.67 mg/dL
  POTASSIUM: 6.52 MEQ/L
  SODIUM: 143.17 MEQ/L
  TOTAL BILIRUBIN: 0.17 mg/dL
  TOTAL PROTEIN: 5.93 G/DL
  URIC ACID: 1.7 mg/dL
[3]
  ABSOLUTE BASOPHIL: 0 CELLS/uL
  ABSOLUTE EOSINOPHIL: 49 CELLS/uL
  ABSOLUTE LYMPHOCYTE: 15618.33 CELLS/uL
  ABSOLUTE MONOCYTE: 94.33 CELLS/uL
  ABSOLUTE SEGMENTED NEUTROPHIL: 971.67 CELLS/uL
  BASOPHIL: 0%
  EOSINOPHIL: 0.33%
  ERYTHROCYTE COUNT: 5.95 x10E6/uL
  HEMATOCRIT: 37.33%
  HEMOGLOBIN: 14.67 G/DL
  LEUKOCYTE COUNT: 16.73 x10E3/uL
  LYMPHOCYTE: 93.33%
  MEAN CORPUSCULAR HEMOGLOBIN: 24.73 pg
  MEAN CORPUSCULAR HEMOGLOBIN CONCENTRATION: 39.3 G/DL
  MEAN CORPUSCULAR VOLUME: 62.9 fL
  MONOCYTE: 0.67%
  NEUTROPHIL: 5.67%
  NUCLEATED RED BLOOD CELLS: 0 /100WBC
  PLATELET COUNT: 1216.33 x10E3/uL
  ALANINE AMINOTRANSFERASE: 55.33 u/L
  ALBUMIN: 4.13 G/DL
  ALKALINE PHOSPHATASE: 501 u/L
  ASPARTATE AMINOTRANSFERASE: 86.67 u/L
  BLOOD UREA NITROGEN: 14 mg/dL
  CARBON DIOXIDE: 31 mmol/L
  CHLORIDE: 100.67 MEQ/L
  CHOLESTEROL: 67.33 mg/dL
  CREATINE PHOSPHOKINASE: 446.67 u/L
  CREATININE: 0.17 mg/dL
  GLUCOSE: 165.67 mg/dL
  LACTATE DEHYDROGENASE: 167.33 u/L
  LIPASE: 11 u/L
  PHOSPHORUS: 11.4 mg/dL
  POTASSIUM: 6.52 MEQ/L
  SODIUM: 143.23 MEQ/L
  TOTAL BILIRUBIN: 0.23 mg/dL
  TOTAL PROTEIN: 6.3 G/DL
  URIC ACID: 1.77 mg/dL
